Legend:
Motilin receptor [1] = target: T1, Motilin receptor (Homo sapiens, UniProt O43193); assay: Agonist activity at MLNR (unknown origin)
Motilin receptor [2] = target: T1, Motilin receptor; assay: Antagonist activity at MLNR (unknown origin)
[3] = target: Growth hormone secretagogue receptor type 1 (Homo sapiens, UniProt Q92847); assay: Agonist activity at GHSR (unknown origin)
Growth hormone secretagogue receptor type 1, sequence (Q92847 whole entry): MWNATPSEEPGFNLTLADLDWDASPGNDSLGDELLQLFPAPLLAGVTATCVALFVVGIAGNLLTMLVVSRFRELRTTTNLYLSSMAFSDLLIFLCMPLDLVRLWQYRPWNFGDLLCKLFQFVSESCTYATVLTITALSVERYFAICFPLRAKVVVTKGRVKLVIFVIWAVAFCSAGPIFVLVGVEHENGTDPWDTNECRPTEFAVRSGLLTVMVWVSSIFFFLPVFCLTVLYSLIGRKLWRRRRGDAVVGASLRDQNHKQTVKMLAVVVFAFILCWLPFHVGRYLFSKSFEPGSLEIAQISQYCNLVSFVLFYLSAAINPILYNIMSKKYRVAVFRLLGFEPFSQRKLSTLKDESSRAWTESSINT

T1 sequence (O43193 whole entry): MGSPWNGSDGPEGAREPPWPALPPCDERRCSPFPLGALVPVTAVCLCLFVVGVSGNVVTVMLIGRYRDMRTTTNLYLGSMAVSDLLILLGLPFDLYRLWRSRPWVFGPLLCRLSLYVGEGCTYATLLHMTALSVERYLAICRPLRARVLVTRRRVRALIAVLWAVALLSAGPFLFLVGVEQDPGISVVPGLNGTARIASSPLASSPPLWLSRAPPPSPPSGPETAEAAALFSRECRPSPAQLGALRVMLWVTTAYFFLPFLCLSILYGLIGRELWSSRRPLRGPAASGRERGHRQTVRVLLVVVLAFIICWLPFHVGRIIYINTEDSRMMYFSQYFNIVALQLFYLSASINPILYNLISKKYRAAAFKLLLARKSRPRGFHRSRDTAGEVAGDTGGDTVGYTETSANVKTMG

Compound	IC50 (Motilin receptor [2])	other results
CCNC(=O)[C@H](Cc1ccc(O)c(C(C)(C)C)c1)C(N)C(=O)[C@H](C(C)C)N(C)C(=O)[C@H](Cc1ccc(F)cc1)NC (some centres undefined)	–	Ki (Motilin receptor [1]): 2.63 nM
CC[C@H]1OC(=O)[C@H](C)[C@@H](O[C@H]2C[C@@](C)(OC)[C@@H](O)[C@H](C)O2)[C@H](C)[C@@H](O[C@@H]2O[C@H](C)C[C@H](N(C)C(C)C)[C@H]2O)[C@]2(C)CC(C)=C(O2)[C@H](C)C(=O)[C@]1(C)OC	3.98 nM	–
C[C@@H]1CN(Cc2ccc(-c3cccnc3C(=O)N3CCC(Nc4ccc(F)cc4)CC3)cc2)C[C@H](C)N1	3.98 nM	–
COc1cccc(CCN(Cc2ccccc2-c2ccc(CN3C[C@@H](C)N[C@@H](C)C3)cc2)C(=O)NC2CCCCC2)c1	–	EC50 [3]: 126 nM
